Data: patent US20230127906A1, “FORMULATIONS FOR EXTENDING LIFESPAN AND HEALTHSPAN” (Buck Institute for Research on Aging, priority 2017, published 2023)
Entries after “also recorded” stand apart in the source; their conditions may differ.

Experiments:
C57BL/6J mice = assay: 31-item clinical frailty index in aged mice (total score and individual metrics); format: in vivo; settings: for alopecia scores (hair loss): four month treatment starting at 18 months of age, FIG. 35; for piloerection: four month treatment, FIG. 37
Source text: C57BL/6J mice of both sexes are aged in group caging in an approved animal facility. Mice are maintained on a 12-hour light/dark cycle, with free access to food and water. In general, initiation of interventions occurs in mice after 12 months of age and is maintained throughout the lifespan of the mice. However, short term or periodic interventional strategies may also be tested.
Mice are randomly assigned to either treatment or control group, and administered compositions of active agents or placebo (control) in food for a sufficient treatment period to observe effects on frailty characteristics.
Mice are periodically evaluated on the 31-item clinical frailty index previously described herein. This was first reported by Whitehead et al. (Journals of Gerontology: BIOLOGICAL SCIENCES, 69:621-632; 2014). This has been used in studies recently as a valuable metric of mouse frailty that involves non-invasive scoring ideal for longitudinal studies and corresponds well with the onset of human frailty (Rockwood et al., Scientific Reports, 7, 43068, 2017).
The 31 point metric for assessment of animal frailty is included in the following table:
For all individual frailty metrics shown, a similar strategy was used to assess frailty score. Using a double blind method, scorers were asked to assess the relative score of each animal either as 0 (healthy), 0.5 (moderately unhealthy) and 1 (unhealthy). For total frailty, all 31 metrics are added and divided by 31. For cohort 2, we report the total frailty score simply as the sum of all 31 metrics without normalization.
Loss of fur color and appearance of grey hair is used interchangeably.
Alopecia or hair loss is used interchangeably.
Kyphosis is a measure of exaggerated outward curvature of the lower cervical/thoracic vertebral column, and can reflect either loss of bone density or increased muscle weakness.
Tremors are a measure of involuntary shaking at rest or during movement. Dermatitis is a routine occurrence in aging C57/B16 mice.
Piloerection is defined as involuntary hair bristling and can be thought of similarly to “goose bumps.” This increases with age and can be triggered by coldness, reflecting an inability of the mice to maintain body temperature.
Mice are randomly assigned to either treatment or control group, and administered compositions comprising Ca-AKG or placebo in food for a sufficient treatment period to observe effects on frailty characteristics.
Mice are periodically evaluated on the 31-item clinical frailty index previously described herein.

inflammatory cytokines = assay: Inflammatory cytokine levels in aged mice; format: in vivo; settings: three month treatment starting at 18 months of age, animals at 21 months, Cohort 2, FIG. 24
IMR-90 fibroblasts = assay: Cell senescence assay, irradiated cells, β-galactosidase; format: cell-based; settings: cells pre-treated prior to irradiation, FIG. 12
Protocol: To measure the effects of Ca-AKG on cell senescence, IMR-90 fibroblasts in culture were exposed to gamma-irradiation either after pretreatment with AKG or prior to (post) treatment with Ca-AKG. Cell senescence was measured by β-Galactosidase fluorescence.

O=C([O-])CCC(=O)C(=O)[O-].[Ca+2] [Ca-AKG, calcium α-ketoglutarate]
alopecia scores (hair loss) (C57BL/6J mice; female mice): neither Ca-AKG nor RP had significant effects on their own | piloerection (C57BL/6J mice; female mice): Neither compound alone had an effect | grey hair (C57BL/6J mice; female mice, measured at 23 months of life, Cohort 1, FIG. 18): reduction in grey hair | hair loss (C57BL/6J mice; relative to control mice, Cohort 1, FIG. 20, 21): reduced hair loss; also recorded: reduction in hair loss | kyphosis (C57BL/6J mice; relative to control mice, Cohort 1, FIG. 22): reduction in kyphosis | tremors (C57BL/6J mice; relative to control mice, Cohort 1, FIG. 23): reduction in tremors | coat graying / grey hair (C57BL/6J mice; vs placebo/control mice, Cohort 1, FIG. 11, 19, 20): dramatically reduced; also recorded: less grey hair than the control mouse; also recorded: less gray hair | levels of inflammatory cytokines (inflammatory cytokines): prevents, or in some cases even reverses, the increase in levels of inflammatory cytokines | cell senescence, senescence-associated β-galactosidase (beta gal) (IMR-90 fibroblasts): protected cells from irradiation-induced senescence; also recorded: decreases relative to control

CCCCCCCCCCCCCCCC(=O)OC/C=C(C)/C=C/C=C(C)/C=C/C1=C(C)CCCC1(C)C [RP, retinyl palmitate]
alopecia scores (hair loss) (C57BL/6J mice; female mice): neither Ca-AKG nor RP had significant effects on their own | piloerection (C57BL/6J mice; female mice): Neither compound alone had an effect

C=C1CC[C@H](O)C/C1=C/C=C1\CCC[C@]2(C)[C@@H]([C@H](C)CCCC(C)C)CC[C@@H]12 [vitamin D3]
alopecia scores (hair loss) (C57BL/6J mice; female mice): sufficient to reduce alopecia | fur color (coat color) (C57BL/6J mice; female mice, four months treatment starting at 18 months of age, FIG. 36): younger coat color | frailty scores (frailty index) (C57BL/6J mice; female mice, two months of treatment, Cohort 2, FIG. 10A): lower frailty | kyphosis index (C57BL/6J mice; male and female mice combined, two months treatment starting at 18 months of age, FIG. 34): reduce the kyphosis index significantly | frailty scores (frailty index) (C57BL/6J mice; male mice, 2 months of treatment, Cohort 2, FIG. 10C): no significant reduction in frailty
